For the test, the target named is T1, full-length beta-Catenin (Uniprot ID P35222) (Homo sapiens, UniProt P35222).
T1 construct: 10 nM full-length beta-Catenin (Uniprot ID P35222)
T1 sequence (P35222 1-781): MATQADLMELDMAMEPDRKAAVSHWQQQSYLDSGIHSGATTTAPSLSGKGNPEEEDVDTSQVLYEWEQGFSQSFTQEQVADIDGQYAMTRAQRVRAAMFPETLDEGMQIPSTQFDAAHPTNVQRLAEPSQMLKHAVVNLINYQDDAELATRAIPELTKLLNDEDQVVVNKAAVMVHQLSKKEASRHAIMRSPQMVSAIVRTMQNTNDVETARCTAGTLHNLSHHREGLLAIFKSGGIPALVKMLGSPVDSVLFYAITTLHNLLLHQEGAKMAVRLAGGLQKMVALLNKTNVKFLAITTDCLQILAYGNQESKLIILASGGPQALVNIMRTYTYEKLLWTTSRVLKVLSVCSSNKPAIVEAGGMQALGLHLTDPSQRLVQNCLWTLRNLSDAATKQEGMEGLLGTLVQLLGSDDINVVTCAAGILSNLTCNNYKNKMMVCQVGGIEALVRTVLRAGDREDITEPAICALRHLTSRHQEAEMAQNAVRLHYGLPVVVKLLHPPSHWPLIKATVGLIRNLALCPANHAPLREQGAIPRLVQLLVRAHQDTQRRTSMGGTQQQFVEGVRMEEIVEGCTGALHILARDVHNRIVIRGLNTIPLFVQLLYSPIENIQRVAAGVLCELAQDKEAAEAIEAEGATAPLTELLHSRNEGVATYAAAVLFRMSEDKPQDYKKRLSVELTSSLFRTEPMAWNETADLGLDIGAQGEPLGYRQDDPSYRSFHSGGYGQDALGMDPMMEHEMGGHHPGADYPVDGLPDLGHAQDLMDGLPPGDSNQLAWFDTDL
As to the kind of experiment: Fluorescence polarization IC50 (beta-catenin / 5FAM-TCF4 10-53 competition). In kind it is binding. The settings on record: fluorescence polarization; read-out: beta-Catenin FP IC50.
Consider `CC(=O)N1CCC[C@]12CC=CCCCC1(CCCC=CCCCOC(=O)N3CC[C@@](C(=O)N[C@@H](Cc4ccsc4)C(=O)N[C@@H](Cc4csc5ccccc45)C(=O)N[C@@H](CCC(N)=O)C(N)=O)(C3)NC(=O)[C@H](CC(N)=O)NC(=O)[C@H](Cc3ccccc3)NC(=O)[C@H](C)NC(=O)[C@H](C)NC(=O)[C@H](CC(=O)O)NC(=O)[C@H](CC(=O)O)NC1=O)NC(=O)[C@H](CC(C)(C)C)NC(=O)[C@H](Cn1cc(CC(C)(C)C(=O)O)nn1)NC2=O` (stereo partly drawn) [I-2329, Ac-PL3-[CH2CMe2CO2H]TriAzDap-Npg-B5-Asp-Asp-Ala-Ala-Phe-Asn-PyrS2-3Thi-BztA-Gln-NH2], for which the IC50 stood at 3800 nM.

Consider `CC(=O)N1CCC[C@]12CC=CCCCC1(CCCC=CCCCOC(=O)N3CC[C@@](C(=O)N[C@@H](Cc4ccsc4)C(=O)N[C@@H](Cc4csc5ccccc45)C(=O)N[C@@H](CCC(N)=O)C(N)=O)(C3)NC(=O)[C@H](CC(N)=O)NC(=O)[C@H](Cc3ccccc3)NC(=O)[C@H](C)NC(=O)[C@H](C)NC(=O)[C@H](CC(=O)O)NC(=O)[C@H](CC(=O)O)NC1=O)NC(=O)[C@H](CC(C)(C)C)NC(=O)[C@H](Cn1cc(C(C)(C)C(=O)O)nn1)NC2=O` (stereo partly drawn) [I-2330, Ac-PL3-[CMe2CO2H]TriAzDap-Npg-B5-Asp-Asp-Ala-Ala-Phe-Asn-PyrS2-3Thi-BztA-Gln-NH2], for which the concentration for half-maximal inhibition (IC50) is 3860 nM.

`CC(=O)N1CCC[C@]12CC=CCCCC1(CCCC=CCCCOC(=O)N3CC[C@@](C(=O)N[C@@H](Cc4ccsc4)C(=O)N[C@@H](Cc4csc5ccccc45)C(=O)N[C@@H](C)C(N)=O)(C3)NC(=O)[C@H]([C@@H](C)O)NC(=O)[C@H](Cc3ccccc3)NC(=O)[C@H](C)NC(=O)[C@H](C)NC(=O)[C@H]([C@@H](C)O)NC(=O)[C@H](CC(N)=O)NC1=O)NC(=O)[C@H](CC(C)(C)C)NC(=O)[C@H](CC(=O)O)NC2=O` (stereo partly drawn) [I-2334, Ac-PL3-Asp-Npg-B5-Asn-Thr-Ala-Ala-Phe-Thr-PyrS2-3Thi-BztA-Ala-NH2]: the IC50 was 656 nM.

`CC(=O)N1CCC[C@]12CC=CCCCC1(CCCC=CCCCOC(=O)N3CC[C@@](C(=O)N[C@@H](Cc4ccsc4)C(=O)N[C@@H](Cc4csc5ccccc45)C(=O)N[C@@H](CCC(N)=O)C(N)=O)(C3)NC(=O)[C@H](CC(N)=O)NC(=O)[C@H](Cc3ccccc3)NC(=O)[C@H](C)NC(=O)[C@H](C)NC(=O)[C@H](Cc3cccc(C(=O)O)c3)NC(=O)[C@H](CC(N)=O)NC1=O)NC(=O)[C@H](CC(C)(C)C)NC(=O)[C@H](CC(=O)O)NC2=O` (stereo partly drawn) [I-2335, Ac-PL3-Asp-Npg-B5-Asn-3COOHF-Ala-Ala-Phe-Asn-PyrS2-3Thi-BztA-Gln-NH2]: the IC50 turned out to be 7 nM.

`CC(=O)N1CCC[C@]12CC=CCCCC1(CCCC=CCCCOC(=O)N3CC[C@@](C(=O)N[C@@H](Cc4ccsc4)C(=O)N[C@@H](Cc4csc5ccccc45)C(=O)N[C@@H](Cc4c[nH]cn4)C(N)=O)(C3)NC(=O)[C@H]([C@@H](C)O)NC(=O)[C@H](Cc3ccccc3)NC(=O)[C@H](C)NC(=O)[C@H](C)NC(=O)[C@H]([C@@H](C)O)NC(=O)[C@H](CC(N)=O)NC1=O)NC(=O)[C@H](CC(C)(C)C)NC(=O)[C@H](CC(=O)O)NC2=O` (stereo partly drawn) [I-2337, Ac-PL3-Asp-Npg-B5-Asn-Thr-Ala-Ala-Phe-Thr-PyrS2-3Thi-BztA-His-NH2]: the IC50 stood at 311 nM.

On to `CC(=O)N1CCC[C@]12CC=CCCCC1(CCCC=CCCCOC(=O)N3CC[C@@](C(=O)N[C@@H](Cc4ccsc4)C(=O)N[C@@H](Cc4csc5ccccc45)C(=O)N[C@@H](CCC(N)=O)C(N)=O)(C3)NC(=O)[C@H](CC(N)=O)NC(=O)[C@H](Cc3ccccc3)NC(=O)C(C)(C)NC(=O)[C@H](C)NC(=O)[C@H]([C@@H](C)O)NC(=O)[C@H](CC(N)=O)NC1=O)NC(=O)[C@H](CC(C)(C)C)NC(=O)[C@H](CC(=O)O)NC2=O` (stereo partly drawn) [I-2339, Ac-PL3-Asp-Npg-B5-Asn-Thr-Ala-Aib-Phe-Asn-PyrS2-3Thi-BztA-Gln-NH2], for which the half-inhibitory concentration (IC50) stood at 2820 nM.

In the case of `CC(=O)N1CCC[C@]12CC=CCCCC1(CCCC=CCCCOC(=O)N3CC[C@@](C(=O)N[C@@H](Cc4ccccc4)C(=O)N[C@@H](Cc4csc5ccccc45)C(=O)N[C@@H](CCC(N)=O)C(N)=O)(C3)NC(=O)[C@H](CC(C)C)NC(=O)[C@H](Cc3ccccc3)NC(=O)[C@H](C)NC(=O)[C@H](CCCCNC(C)C)NC(=O)[C@H](Cc3cccc(C(N)=O)c3)NC(=O)[C@H](CC(=O)O)NC1=O)NC(=O)[C@H](CC1CCCCC1)NC(=O)[C@H](CC(N)=O)NC2=O` (stereo partly drawn) [I-2342, Ac-PL3-Asn-Cha-B5-Asp-3cbmf-iPrLys-Ala-Phe-Leu-PyrS2-Phe-BztA-Gln-NH2], the half-inhibitory concentration (IC50) worked out at 2730 nM.

Turning to `CC(=O)N1CCC[C@]12CC=CCCCC1(CCCC=CCCCOC(=O)N3CC[C@@](C(=O)N[C@@H](Cc4ccccc4)C(=O)N[C@@H](Cc4csc5ccccc45)C(=O)N[C@@H](CCC(N)=O)C(N)=O)(C3)NC(=O)[C@H](CC(C)C)NC(=O)[C@H](Cc3ccccc3)NC(=O)[C@H](C)NC(=O)[C@H](CCCCNC(C)C)NC(=O)[C@H](CCO)NC(=O)[C@H](CC(=O)O)NC1=O)NC(=O)[C@H](CC1CCCCC1)NC(=O)[C@H](CC(N)=O)NC2=O` (stereo partly drawn) [I-2344, Ac-PL3-Asn-Cha-B5-Asp-Hse-iPrLys-Ala-Phe-Leu-PyrS2-Phe-BztA-Gln-NH2], the half-inhibitory concentration (IC50) was 586 nM.

In the case of `CC(=O)N1CCC[C@]12CC=CCCCC1(CCCC=CCCCOC(=O)N3CC[C@@](C(=O)N[C@@H](Cc4ccccc4)C(=O)N[C@@H](Cc4csc5ccccc45)C(=O)N[C@@H](CCC(N)=O)C(N)=O)(C3)NC(=O)[C@H](CC(C)C)NC(=O)[C@H](Cc3ccccc3)NC(=O)[C@H](C)NC(=O)[C@H](CCCCNC(C)C)NC(=O)[C@H](CCO)NC(=O)[C@H](CC(=O)O)NC1=O)NC(=O)[C@H](CC1CCCCC1)NC(=O)[C@H](CC(N)=O)NC2=O` (stereo partly drawn) [I-2345, Ac-PL3-Asn-Cha-B5-Asp-Hse-iPrLys-Ala-Phe-Leu-PyrS2-Phe-BztA-Gln-NH2], the half-maximal inhibitory concentration (IC50) was 1270 nM.

With `CC(=O)N1CCC[C@]12CC=CCCCC1(CCCC=CCCCOC(=O)N3CC[C@@](C(=O)N[C@@H](Cc4ccccc4)C(=O)N[C@@H](Cc4csc5ccccc45)C(=O)N[C@@H](CCC(N)=O)C(N)=O)(C3)NC(=O)[C@H](CC(C)C)NC(=O)[C@H](Cc3ccccc3)NC(=O)[C@H](C)NC(=O)[C@H](CCCCNC(C)C)NC(=O)[C@H](CCCCN)NC(=O)[C@H](CC(=O)O)NC1=O)NC(=O)[C@H](CC1CCCCC1)NC(=O)[C@H](CC(N)=O)NC2=O` (stereo partly drawn) [I-2346, Ac-PL3-Asn-Cha-B5-Asp-Lys-iPrLys-Ala-Phe-Leu-PyrS2-Phe-BztA-Gln-NH2], the IC50 stood at 422 nM.

In the case of `CC(=O)N1CCC[C@]12CC=CCCCC1(CCCC=CCCCOC(=O)N3CC[C@@](C(=O)N[C@@H](Cc4ccccc4)C(=O)N[C@@H](Cc4csc5ccccc45)C(=O)N[C@@H](CCC(N)=O)C(N)=O)(C3)NC(=O)[C@H](CC(C)C)NC(=O)[C@H](Cc3ccccc3)NC(=O)[C@H](C)NC(=O)[C@H](CCCCNC(C)C)NC(=O)[C@H](CCCCN)NC(=O)[C@H](CC(=O)O)NC1=O)NC(=O)[C@H](CC1CCCCC1)NC(=O)[C@H](CC(N)=O)NC2=O` (stereo partly drawn) [I-2347, Ac-PL3-Asn-Cha-B5-Asp-Lys-iPrLys-Ala-Phe-Leu-PyrS2-Phe-BztA-Gln-NH2], the IC50 stood at 5630 nM.

In the case of `CC(=O)N1CCC[C@]12CC=CCCCC1(CCCC=CCCCOC(=O)N3CC[C@@](C(=O)N[C@@H](Cc4ccccc4)C(=O)N[C@@H](Cc4csc5ccccc45)C(=O)N[C@@H](CCC(N)=O)C(N)=O)(C3)NC(=O)[C@H](CC(C)C)NC(=O)[C@H](Cc3ccccc3)NC(=O)[C@H](C)NC(=O)[C@H](CCCCNC(C)C)NC(=O)[C@H](Cc3c[nH]cn3)NC(=O)[C@H](CC(=O)O)NC1=O)NC(=O)[C@H](CC1CCCCC1)NC(=O)[C@H](CC(N)=O)NC2=O` (stereo partly drawn) [I-2348, Ac-PL3-Asn-Cha-B5-Asp-His-iPrLys-Ala-Phe-Leu-PyrS2-Phe-BztA-Gln-NH2], the IC50 was determined as 179 nM.

On to `CC(=O)N1CCC[C@]12CC=CCCCC1(CCCC=CCCCOC(=O)N3CC[C@@](C(=O)N[C@@H](Cc4ccccc4)C(=O)N[C@@H](Cc4csc5ccccc45)C(=O)N[C@@H](CCC(N)=O)C(N)=O)(C3)NC(=O)[C@H](CC(C)C)NC(=O)[C@H](Cc3ccccc3)NC(=O)[C@H](C)NC(=O)[C@H](CCCCNC(C)C)NC(=O)[C@H](Cc3c[nH]cn3)NC(=O)[C@H](CC(=O)O)NC1=O)NC(=O)[C@H](CC1CCCCC1)NC(=O)[C@H](CC(N)=O)NC2=O` (stereo partly drawn) [I-2349, Ac-PL3-Asn-Cha-B5-Asp-His-iPrLys-Ala-Phe-Leu-PyrS2-Phe-BztA-Gln-NH2], for which the 50% inhibitory concentration (IC50) amounted to 1160 nM.

`CC(=O)N1CCC[C@]12CC=CCCCC1(CCCC=CCCCOC(=O)N3CC[C@@](C(=O)N[C@@H](Cc4ccccc4)C(=O)N[C@@H](Cc4csc5ccccc45)C(=O)N[C@@H](Cc4c[nH]cn4)C(N)=O)(C3)NC(=O)[C@H](CC(C)C)NC(=O)[C@H](Cc3ccccc3)NC(=O)[C@H](C)NC(=O)[C@H](CCCCNC(C)C)NC(=O)[C@H](CCC(N)=O)NC(=O)[C@H](CC(=O)O)NC1=O)NC(=O)[C@H](CC1CCCCC1)NC(=O)[C@H](CC(N)=O)NC2=O` (stereo partly drawn) [I-2351, Ac-PL3-Asn-Cha-B5-Asp-Gln-iPrLys-Ala-Phe-Leu-PyrS2-Phe-BztA-His-NH2]: the IC50 turned out to be 187 nM.

The values above are taken from patent US20240116985A1, “STAPLED PEPTIDES AND METHODS THEREOF” (priority 2020, published 2024).
